Results on 13 compounds are retold here after patent US11084842B2 (SUNSHINE LAKE PHARMA CO., LTD., priority 2018, dated 2021).

pIC50: −log10 of the molar value.

The first experiment has as its system blood glucose of SD rats. The experiment is described as follows: Oral glucose tolerance test in SD rats (Test Method 2). The class given is in vivo. The settings on record: dosage 0.1 mg/kg by gavage, glucose 4.0 g/kg, decline rate of AUCGlu 0-60min. On the procedure: The following methods were used to evaluate the effects of the compound of the invention on improving oral glucose tolerance and glycosuria excretion.
The weights and the fasting blood glucose levels of male SD rats were measured after an overnight 15-hours fast. The rats were grouped by their weights and fasting plasma glucose levels. […] After 30 minutes, the blood glucose level (i.e., zero point blood glucose) of each group was measured, and then each group was immediately administered glucose (4.0 g/kg) once by gavage. The blood was drawn from the caudal vein of the […] at 15, 30 and 60 minutes after glucose administration and the blood glucose levels were measured continuously on blood-glucose meter. The decline rate of the area under the blood sugar curve within 60 minutes (AUCGlu 0-60min) after sugar loading was calculated.
For `Cc1ccc([C@]23OC[C@](C(C)(C)O)(O2)[C@@H](O)[C@H](O)[C@H]3O)cc1Cc1ccc(CCCC(=O)NC2(C(=O)NCCN(C)C)CCCCC2)cc1` [Example 16, N-(2-dimethylaminoethyl)-1-[4-[4-[[2-methyl-5-[(1S,2S,3S,4R,5S)-2,3,4-trihydroxy-1-(1-hydroxy-1-methyl-ethyl)-6,8-dioxabicyclo[3.2.1]octane-5-yl]phenyl]methyl]phenyl]butylamide]cyclohexyl carboxamide], the “hypoglycemic rate (%)” value came to 30.93%.

Staying with this experiment, now noted: dosage 1 mg/kg by gavage, glucose 4.0 g/kg, decline rate of AUCGlu 0-60min.
Consider `Cc1ccc([C@]23OC[C@](C(C)(C)O)(O2)[C@@H](O)[C@H](O)[C@H]3O)cc1Cc1ccc(CCCC(=O)NC(C)(C)C(=O)NCCN(C)C)cc1` [Example 2], for which the “hypoglycemic rate (%)” value came to 31.64%. Still for that read-out and setting: the result for `Cc1ccc([C@]23OC[C@](C(C)(C)O)(O2)[C@@H](O)[C@H](O)[C@H]3O)cc1Cc1ccc(CCCC(=O)N[C@@H](C)C(=O)NCCN(C)C)cc1` [Example 6, N-[(1S)-2-(2-dimethylaminoethylamino)-1-methyl-2-oxo-ethyl]-4-[4-[[2-methyl-5-[(1S,2S,3S,4R,5S)-2,3,4-trihydroxy-1-(1-hydroxy-1-methyl-ethyl)-6,8-dioxabicyclo[3.2.1]octane-5-yl]phenyl]methyl]phenyl]butanamide] reads 33.19%.

In a further experiment the target is T1, human SGLT1 (Homo sapiens, UniProt P13866).
T1 construct: expressed in transfected cells; host or cells: CHO cells (FIP-in CHO; mock-transfected cells as control)
T1 sequence (P13866 1-664): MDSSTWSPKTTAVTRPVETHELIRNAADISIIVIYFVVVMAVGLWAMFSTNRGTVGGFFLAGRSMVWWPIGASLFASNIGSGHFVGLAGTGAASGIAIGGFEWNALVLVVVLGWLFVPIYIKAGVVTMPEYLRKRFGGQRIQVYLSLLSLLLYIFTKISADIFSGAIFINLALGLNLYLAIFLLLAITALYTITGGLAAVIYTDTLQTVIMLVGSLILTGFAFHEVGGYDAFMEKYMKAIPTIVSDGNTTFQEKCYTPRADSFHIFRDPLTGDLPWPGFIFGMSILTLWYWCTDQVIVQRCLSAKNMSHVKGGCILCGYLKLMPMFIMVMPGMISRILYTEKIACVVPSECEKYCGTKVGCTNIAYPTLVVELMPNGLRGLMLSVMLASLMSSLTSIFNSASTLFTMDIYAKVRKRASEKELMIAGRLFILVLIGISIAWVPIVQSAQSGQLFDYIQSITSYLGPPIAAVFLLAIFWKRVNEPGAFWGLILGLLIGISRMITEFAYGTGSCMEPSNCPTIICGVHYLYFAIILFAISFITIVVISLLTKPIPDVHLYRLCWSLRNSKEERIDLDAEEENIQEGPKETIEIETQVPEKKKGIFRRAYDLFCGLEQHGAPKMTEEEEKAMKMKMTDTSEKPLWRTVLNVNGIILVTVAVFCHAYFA
As to the kind of experiment: Test of inhibitory activity on SGLT1 ([14C]-AMG uptake in CHO cells expressing human SGLT1). The experiment is classed as cell-based. To be noted: CHO cells expressing human SGLT1, 0.5 μM [14C]-AMG, 37° C., 1 hour. The method, then: The following methods can be used to determine the inhibitory activity of the compound of the invention on SGLT-1.
Mock-transfected FIP-in CHO cells (3×10^4 cells) and expressing human SGLT1 CHO cells were seeded into 96-well plates respectively. The cells were incubated for 12 hours. Each well of the 96-well plate was washed with 150 μL of sodium-free buffer once. To each well was added 50 μL of sodium-containing buffer containing test compounds having different concentrations and 0.5 μM [^14C]-AMG. The incubation mixture was incubated at 37° C. for 1 hour. To each well was added 150 μL of precooled sodium-free buffer to terminate the reaction. The cell pellet was washed with sodiumfree buffer three times and the residual liquid in well was removed. To each well was added 20 μL of precooled 100 mM NaOH. The 96-well plate was vibrated at 900 rpm for 5 minutes. Scintillation fluid (80 μL) was added to each well which was then vibrated at 600 rpm for 5 minutes. The amount of ^14C-AMG was quantitatively detected using liquid scintillation.
In general, pIC50 refers to the IC50 on a negative log10 scale, so that one unit is a factor of ten. For `Cc1ccc([C@]23OC[C@](C(C)(C)O)(O2)[C@@H](O)[C@H](O)[C@H]3O)cc1Cc1ccc(CCCC(=O)NC2(C(=O)NCCN(C)C)CCCC2)cc1` [Example 8, N-(2-dimethylaminoethyl)-1-[4-[4-[[2-methyl-5-[(1S,2S,3S,4R,5S)-2,3,4-trihydroxy-1-(1-hydroxy-1-methyl-ethyl)-6,8-dioxabicyclo[3.2.1]octane-5-yl]phenyl]methyl]phenyl]butylamide]cyclopentyl formamide], the pIC50 was 9.62. The same measure, in the same setting: the result for `Cc1ccc([C@]23OC[C@](C(C)(C)O)(O2)[C@@H](O)[C@H](O)[C@H]3O)cc1Cc1ccc(CCCC(=O)N[C@H](C(=O)NCCN(C)C)C2CC2)cc1` [Example 10, N-[(1S)-1-cyclopropyl-2-(2-dimethylaminoethylamino)-2-oxo-ethyl]-4-[4-[[2-methyl-5-[(1S,2S,3S,4R,5S)-2,3,4-trihydroxy-1-(1-hydroxy-1-methyl-ethyl)-6,8-dioxabicyclo[3.2.1]octane-5-yl]phenyl]methyl]phenyl]butanamide] reads 8.79; that for `Cc1ccc([C@]23OC[C@](C(C)(C)O)(O2)[C@@H](O)[C@H](O)[C@H]3O)cc1Cc1ccc(CCCC(=O)NC2(C(=O)NCCN(C)C)CCC2)cc1` [Example 11], 9.64.

Turning to `CCC(CC)(NC(=O)CCCc1ccc(Cc2cc([C@]34OC[C@](C(C)(C)O)(O3)[C@@H](O)[C@H](O)[C@H]4O)ccc2C)cc1)C(=O)NCCN(C)C` [Example 12, N-(2-dimethylaminoethyl)-2-ethyl-2-[4-[4-[[2-methyl-5-[(1S,2S,3S,4R,5S)-2,3,4-trihydroxy-1-(1-hydroxy-1-methyl-ethyl)-6,8-dioxabicyclo[3.2.1]octane-5-yl]phenyl]methyl]phenyl]butanamido]butanamide], the pIC50 was 8.82.

With `Cc1ccc([C@]23OC[C@](C)(O2)[C@@H](O)[C@H](O)[C@H]3O)cc1Cc1ccc(CCCC(=O)NC(C)(C)C(=O)NCCN(C)C)cc1` [Example 13], the pIC50 was 8.54. For the compound `CC[C@@]12CO[C@@](c3ccc(C)c(Cc4ccc(CCCC(=O)NC(C)(C)C(=O)NCCN(C)C)cc4)c3)(O1)[C@H](O)[C@@H](O)[C@@H]2O` [Example 14, N-(2-dimethylaminoethyl)-2-[4-[4-[[5-[(1S,2S,3S,4R,5S)-1-ethyl-2,3,4-trihydroxy-6,8-dioxabicyclo[3.2.1]octane-5-yl]-2-methyl-phenyl]methyl]phenyl]butanamido]-2-methyl-propionamide], the pIC50 is 9.24. Same read-out and setting: the result for `Cc1ccc([C@]23OC[C@](C(C)(C)O)(O2)[C@@H](O)[C@H](O)[C@H]3O)cc1Cc1ccc(CCCC(=O)NC2(C(=O)NCCN(C)C)CCCCC2)cc1` [Example 16, N-(2-dimethylaminoethyl)-1-[4-[4-[[2-methyl-5-[(1S,2S,3S,4R,5S)-2,3,4-trihydroxy-1-(1-hydroxy-1-methyl-ethyl)-6,8-dioxabicyclo[3.2.1]octane-5-yl]phenyl]methyl]phenyl]butylamide]cyclohexyl carboxamide] reads 9.33; that for `Cc1ccc([C@]23OC[C@](C)(O2)[C@@H](O)[C@H](O)[C@H]3O)cc1Cc1ccc(CCCC(=O)NC2(C(=O)NCCN(C)C)CCC2)cc1` [Example 17, N-(2-dimethylaminoethyl)-1-[4-[4-[[2-methyl-5-[(1S,2S,3S,4R,5S)-2,3,4-trihydroxy-1-methyl-6,8-dioxabicyclo[3.2.1]octane-5-yl]phenyl]methyl]phenyl]butanamido]cyclobutyl carboxamide], 9.40.

Take `Cc1ccc([C@]23OC[C@](C)(O2)[C@@H](O)[C@H](O)[C@H]3O)cc1Cc1ccc(CCCC(=O)NC2(C(=O)NCCN(C)C)CCCCC2)cc1` [Example 18]: the pIC50 was 9.37. The pIC50 values of the last two compounds are within 0.2 log units of each other. Same read-out and setting: the result for `Cc1ccc([C@]23OC[C@](C)(O2)[C@@H](O)[C@H](O)[C@H]3O)cc1Cc1ccc(OCCCC(=O)NC2(C(=O)NCCN(C)C)CCC2)cc1` [Example 20, N-(2-dimethylaminoethyl)-1-[4-[4-[[2-methyl-5-[(1S,2S,3S,4R,5S)-2,3,4-trihydroxy-1-methyl-6,8-dioxabicyclo[3.2.1]octane-5-yl]phenyl]methyl]phenoxy]butanamido]cyclobutyl carboxamide] reads 9.26; that for `Cc1ccc([C@]23OC[C@](C)(O2)[C@@H](O)[C@H](O)[C@H]3O)cc1Cc1ccc(OCCCC(=O)NC2(C(=O)NCCN(C)C)CCCCC2)cc1` [Example 21, N-(2-dimethylaminoethyl)-1-[4-[4-[[2-methyl-5-[(1S,2S,3S,4R,5S)-2,3,4-trihydroxy-1-methyl-6,8-dioxabicyclo[3.2.1]octane-5-yl]phenyl]methyl]phenoxy]butanamido]cyclohexylcarboxamide], 9.22.
